Read-outs that look alike come from different tables or passages of the source.
Tested on: test plant species
Experiment: Post-emergent herbicidal activity test (greenhouse, foliar spray, visual growth reduction)
Type: in vivo
Settings: 140 g ai/ha; for pest or weed control at 140 g/ha: post-emergence, 336 h
Summary of the method: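 Visual percent injury (0-100) rated 14 d after treatment, relative to nontreated and solvent-blank plants. Test plants at first or second true leaf stage received an overhead track-sprayer application at 187 L/ha. Compounds were formulated in aqueous acetone/DMSO carrier containing crop oil concentrate and X-77 surfactant.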

[1] = ECHCG: barnyardgrass (Echinochloa crus-galli), 14 days after application, read-out: Visual Growth Reduction (%) 14 Days After Application, ECHCG
[2] = IPOHE: ivy-leaf morning glory (Ipomoea hederacea), 14 days after application, read-out: Visual Growth Reduction (%) 14 Days After Application, IPOHE
[3] = KCHSC: kochia (Bassia scoparia), 14 days after application, read-out: Visual Growth Reduction (%) 14 Days After Application, KCHSC
[4] = ORYSA: rice (Oryza sativa), 14 days after application, read-out: Visual Growth Reduction (%) 14 Days After Application, ORYSA
[5] = SETFA: giant foxtail (Setaria faberi), 14 days after application, read-out: Visual Growth Reduction (%) 14 Days After Application, SETFA
[6] = SORVU: grain sorghum (Sorghum vulgare), 14 days after application, read-out: Visual Growth Reduction (%) 14 Days After Application, SORVU
[7] = STEME: common chickweed (Stellaria media), 14 days after application, read-out: Visual Growth Reduction (%) 14 Days After Application, STEME
[8] = TRZAS: wheat, spring (Triticum aestivum), 14 days after application, read-out: Visual Growth Reduction (%) 14 Days After Application, TRZAS
[9] = blackgrass (Alopecurus myosuroides), 14 Days After Application, read-out: Visual Growth Reduction (%) ALOMY
[10] = canada thistle (Cirsium arvense), 14 Days After Application, read-out: Visual Growth Reduction (%) CIRAR
[11] = crabgrass (Digitaria sanguinalis), 14 Days After Application, read-out: Visual Growth Reduction (%) DIGSA
[12] = lambsquarters (Chenopodium album), 14 Days After Application, read-out: Visual Growth Reduction (%) CHEAL
[13] = redroot pigweed (Amaranthus retroflexus), 14 Days After Application, read-out: Visual Growth Reduction (%) AMARE
[14] = wild oat (Avena fatua), 14 Days After Application, read-out: Visual Growth Reduction (%) AVEFA
[15] = yellow nutsedge (Cyperus esculentus), 14 Days After Application, read-out: Visual Growth Reduction (%) CYPES
[16] = ALOMY: blackgrass (Alopecurus myosuroides), 14 days after application, read-out: Visual Growth Reduction (%) 14 Days After Application, ALOMY
[17] = AMARE: redroot pigweed (Amaranthus retroflexus), 14 days after application, read-out: Visual Growth Reduction (%) 14 Days After Application, AMARE
[18] = AVEFA: wild oat (Avena fatua), 14 days after application, read-out: Visual Growth Reduction (%) 14 Days After Application, AVEFA
[19] = CHEAL: lambsquarters (Chenopodium album), 14 days after application, read-out: Visual Growth Reduction (%) 14 Days After Application, CHEAL
[20] = CIRAR: canada thistle (Cirsium arvense), 14 days after application, read-out: Visual Growth Reduction (%) 14 Days After Application, CIRAR
[21] = CYPES: yellow nutsedge (Cyperus esculentus), 14 days after application, read-out: Visual Growth Reduction (%) 14 Days After Application, CYPES
[22] = DIGSA: crabgrass (Digitaria sanguinalis), 14 days after application, read-out: Visual Growth Reduction (%) 14 Days After Application, DIGSA

SMILES | pest or weed control at 140 g/ha [1] | pest or weed control at 140 g/ha [2] | pest or weed control at 140 g/ha [3] | pest or weed control at 140 g/ha [4] | pest or weed control at 140 g/ha [5] | pest or weed control at 140 g/ha [6] | pest or weed control at 140 g/ha [7] | pest or weed control at 140 g/ha [8] | pest or weed control at 140 g/ha [9] | pest or weed control at 140 g/ha [10] | pest or weed control at 140 g/ha [11] | pest or weed control at 140 g/ha [12] | pest or weed control at 140 g/ha [13] | pest or weed control at 140 g/ha [14] | pest or weed control at 140 g/ha [15] | further results
COC(=O)c1nc(-c2ccc([N+](=O)[O-])cc2)c(F)cc1Cl [F197, Methyl 3-chloro-5-fluoro-6-(4-nitrophenyl) picolinate] | – | – | – | – | – | – | – | – | – | – | – | – | – | – | – | Visual Growth Reduction (%) 14 Days After Application, ALOMY (ALOMY: blackgrass (Alopecurus myosuroides), 14 days after application): G (0-29); Visual Growth Reduction (%) 14 Days After Application, AMARE (AMARE: redroot pigweed (Amaranthus retroflexus), 14 days after application): G (0-29); Visual Growth Reduction (%) 14 Days After Application, AVEFA (AVEFA: wild oat (Avena fatua), 14 days after application): G (0-29); Visual Growth Reduction (%) 14 Days After Application, CHEAL (CHEAL: lambsquarters (Chenopodium album), 14 days after application): E (45-59); Visual Growth Reduction (%) 14 Days After Application, CIRAR (CIRAR: canada thistle (Cirsium arvense), 14 days after application): G (0-29); Visual Growth Reduction (%) 14 Days After Application, CYPES (CYPES: yellow nutsedge (Cyperus esculentus), 14 days after application): G (0-29); Visual Growth Reduction (%) 14 Days After Application, DIGSA (DIGSA: crabgrass (Digitaria sanguinalis), 14 days after application): F (30-44); Visual Growth Reduction (%) 14 Days After Application, ECHCG (ECHCG: barnyardgrass (Echinochloa crus-galli), 14 days after application): G (0-29); Visual Growth Reduction (%) 14 Days After Application, IPOHE (IPOHE: ivy-leaf morning glory (Ipomoea hederacea), 14 days after application): D (60-74); Visual Growth Reduction (%) 14 Days After Application, KCHSC (KCHSC: kochia (Bassia scoparia), 14 days after application): G (0-29); Visual Growth Reduction (%) 14 Days After Application, ORYSA (ORYSA: rice (Oryza sativa), 14 days after application): G (0-29); Visual Growth Reduction (%) 14 Days After Application, SETFA (SETFA: giant foxtail (Setaria faberi), 14 days after application): G (0-29); Visual Growth Reduction (%) 14 Days After Application, SORVU (SORVU: johnsongrass (Sorghum vulgare), 14 days after application): F (30-44); Visual Growth Reduction (%) 14 Days After Application, STEME (STEME: common chickweed (Stellaria media), 14 days after application): G (0-29); Visual Growth Reduction (%) 14 Days After Application, TRZAS (TRZAS: wheat, spring (Triticum aestivum), 14 days after application): G (0-29)
COC(=O)c1nc(-c2ccc(Cl)nc2Cl)ccc1Cl [F284, Methyl 2′,5,6′-trichloro-[2,3′-bipyridine]-6-carboxylate] | 0 to 29% | 60 to 74% | 0 to 29% | 0 to 29% | 0 to 29% | 85 to 94% | 0 to 29% | 0 to 29% | 0 to 29% | 30 to 44% | 0 to 29% | 0 to 29% | 0 to 29% | 0 to 29% | 0 to 29% | –
COC(=O)c1nc(-c2ccc(C(F)(F)F)c(F)c2)ccc1Cl [F306, Methyl 3-chloro-6-(3-fluoro-4-(trifluoromethyl)phenyl)picolinate] | 0 to 29% | 95 to 100% | 0 to 29% | 0 to 29% | 0 to 29% | 60 to 74% | 0 to 29% | 0 to 29% | 0 to 29% | 0 to 29% | 75 to 84% | 0 to 29% | 30 to 44% | 0 to 29% | 45 to 59% | –
COC(=O)c1nc(-c2ccc(SC(F)(F)F)cc2Cl)c(Cl)cc1Cl [F130, Methyl 3,5-dichloro-6-(2-chloro-4-((trifluoromethyl)thio)phenyl) picolinate] | 0 to 29% | 30 to 44% | 60 to 74% | 0 to 29% | 60 to 74% | 30 to 44% | 0 to 29% | 0 to 29% | – | – | – | – | – | – | – | pest or weed control at 140 g/ha [16]: 0 to 29%; pest or weed control at 140 g/ha [17]: 85 to 94%; pest or weed control at 140 g/ha [18]: 0 to 29%; pest or weed control at 140 g/ha [19]: 75 to 84%; pest or weed control at 140 g/ha [20]: 75 to 84%; pest or weed control at 140 g/ha [21]: 0 to 29%; pest or weed control at 140 g/ha [22]: 60 to 74%
O=C(O)c1nc(-c2cccc3c2OC(F)(F)O3)ccc1Cl [F255, 3-Chloro-6-(2,2-difluorobenzo[d][1,3]dioxol-4-yl)picolinic acid] | 0 to 29% | 0 to 29% | 0 to 29% | 0 to 29% | 0 to 29% | 0 to 29% | 0 to 29% | 0 to 29% | 0 to 29% | 0 to 29% | 0 to 29% | 0 to 29% | 0 to 29% | 0 to 29% | 0 to 29% | –
COC(=O)c1nc(-c2ccc3c(c2)C(F)(F)OC(F)(F)O3)ccc1Cl [F203, Methyl 3-chloro-6-(2,2,4,4-tetrafluoro-4H-benzo[d][1,3]dioxin-6-yl) picolinate] | 0 to 29% | 30 to 44% | 0 to 29% | 0 to 29% | 0 to 29% | 0 to 29% | 0 to 29% | 0 to 29% | 0 to 29% | 0 to 29% | 0 to 29% | 0 to 29% | 0 to 29% | 0 to 29% | 0 to 29% | –
C=Cc1cc(-c2nc(C(=O)OC)c(Cl)cc2F)c(Cl)cc1C(F)(F)F [F303, Methyl 3-chloro-6-(2-chloro-4-(trifluoromethyl)-5-vinylphenyl)-5-fluoropicolinate] | 0 to 29% | 95 to 100% | 0 to 29% | 0 to 29% | 0 to 29% | 0 to 29% | 0 to 29% | 0 to 29% | 0 to 29% | 0 to 29% | 0 to 29% | 75 to 84% | 0 to 29% | 0 to 29% | 0 to 29% | –
COC(=O)c1nc(-c2ccc(S(C)(=O)=O)cc2)c(F)cc1Cl [F169, Methyl 3-chloro-5-fluoro-6-(4-(methylsulfonyl)phenyl)picolinate] | 45 to 59% | 60 to 74% | 30 to 44% | 0 to 29% | 60 to 74% | 60 to 74% | 0 to 29% | 0 to 29% | – | – | – | – | – | – | – | pest or weed control at 140 g/ha [16]: 0 to 29%; pest or weed control at 140 g/ha [17]: 30 to 44%; pest or weed control at 140 g/ha [18]: 0 to 29%; pest or weed control at 140 g/ha [19]: 30 to 44%; pest or weed control at 140 g/ha [20]: 0 to 29%; pest or weed control at 140 g/ha [21]: 0 to 29%; pest or weed control at 140 g/ha [22]: 30 to 44%

Source: US20230017045A1, “PYRIDINE AND PYRIMIDINE CARBOXYLATE HERBICIDES AND METHODS OF USE THEREOF” (Dow AgroSciences LLC, priority 2017, published 2023)
